Data as given in the NIST ThermoML archive (doi:10.1021/je101178u).
“And” between values parts separate entries of the source, which are not always exact repeats. Identical values can stand only once.

Settings: 307.15 K, Fluid (supercritical or subcritical phases); for mass density: Buoyancy - hydrostatic balance with magnetic suspension - one sinker; for viscosity: vibrating wire

CC [ethane]
Settings	mass density	viscosity
2134.4 kPa	30.049 kg/m3	0.01007 mPa·s
2134.5 kPa	30.051 kg/m3	0.01006 mPa·s
2653.6 kPa	39.629 kg/m3	0.01038 mPa·s
2653.7 kPa	39.631 kg/m3	0.01038 mPa·s
2674.2 kPa	40.039 kg/m3 and 40.038 kg/m3	0.01034 mPa·s
2674.3 kPa	40.04 kg/m3	0.01034 mPa·s
3138.1 kPa	50.006 kg/m3	0.01066 mPa·s
3138.2 kPa	50.008 kg/m3	0.01066 mPa·s
3138.4 kPa	50.012 kg/m3	0.01066 mPa·s
3539.6 kPa	60.147 kg/m3	0.01103 mPa·s
3539.8 kPa	60.154 kg/m3	0.01103 mPa·s
3815.6 kPa	68.316 kg/m3	0.01142 mPa·s
3821.7 kPa	68.511 kg/m3	0.01143 mPa·s
3889 kPa	70.711 kg/m3	0.01145 mPa·s
3892.4 kPa	70.823 kg/m3	0.01146 mPa·s
4150.5 kPa	80.267 kg/m3	0.01188 mPa·s
4151.6 kPa	80.309 kg/m3	0.01189 mPa·s
4152 kPa	80.328 kg/m3	0.01189 mPa·s
4152.4 kPa	80.342 kg/m3	0.01189 mPa·s
4328.6 kPa	88.031 kg/m3	0.01226 mPa·s
4329.5 kPa	88.072 kg/m3	0.01226 mPa·s
4330.1 kPa	88.099 kg/m3	0.01227 mPa·s
4330.4 kPa	88.116 kg/m3	0.01226 mPa·s
4331.5 kPa	88.167 kg/m3	0.01226 mPa·s
4514.6 kPa	97.86 kg/m3	0.01277 mPa·s
4516.2 kPa	97.954 kg/m3	0.01278 mPa·s
4517.4 kPa	98.024 kg/m3	0.01279 mPa·s
4518.3 kPa	98.079 kg/m3	0.01279 mPa·s
4519.2 kPa	98.129 kg/m3	0.01279 mPa·s
4557.7 kPa	100.499 kg/m3	0.01302 mPa·s
4558.1 kPa	100.521 kg/m3	0.01302 mPa·s
4736.3 kPa	113.82 kg/m3	0.01371 mPa·s
4736.7 kPa	113.852 kg/m3	0.01371 mPa·s
4939.2 kPa	140.104 kg/m3	0.01552 mPa·s
4939.3 kPa	140.112 kg/m3	0.01552 mPa·s
5008.9 kPa	160.457 kg/m3 and 160.473 kg/m3	0.01729 mPa·s
5019.4 kPa	165.641 kg/m3 and 165.625 kg/m3	0.01766 mPa·s
5019.5 kPa	165.654 kg/m3	0.01767 mPa·s
5042.9 kPa	182.964 kg/m3	0.01932 mPa·s
5043 kPa	183.065 kg/m3 and 183.021 kg/m3	0.01933 mPa·s and 0.01932 mPa·s
5050.1 kPa	191.037 kg/m3	0.02022 mPa·s
5050.2 kPa	191.169 kg/m3	0.02023 mPa·s
5051 kPa	192.154 kg/m3 and 192.131 kg/m3	0.02026 mPa·s
5051.1 kPa	192.228 kg/m3 and 192.185 kg/m3	0.02028 mPa·s
5058.7 kPa	202.521 kg/m3 and 202.456 kg/m3	0.02133 mPa·s and 0.02132 mPa·s
5058.8 kPa	202.654 kg/m3 and 202.599 kg/m3 and 202.583 kg/m3	0.02137 mPa·s and 0.02136 mPa·s and 0.02133 mPa·s
5060.1 kPa	204.501 kg/m3	0.02168 mPa·s
5060.2 kPa	204.534 kg/m3 and 204.598 kg/m3	0.02168 mPa·s
5060.3 kPa	204.743 kg/m3 and 204.709 kg/m3	0.02159 mPa·s and 0.02158 mPa·s
5060.4 kPa	204.805 kg/m3	0.02159 mPa·s
5062 kPa	207.173 kg/m3	0.02199 mPa·s
5062.1 kPa	207.31 kg/m3	0.02199 mPa·s
5062.2 kPa	207.441 kg/m3	0.022 mPa·s
5064.1 kPa	209.963 kg/m3 and 209.982 kg/m3 and 209.961 kg/m3	0.02215 mPa·s and 0.02216 mPa·s
5064.2 kPa	210.139 kg/m3 and 210.11 kg/m3	0.02219 mPa·s
5065.4 kPa	211.657 kg/m3 and 211.736 kg/m3	0.02255 mPa·s
5065.5 kPa	211.805 kg/m3	0.02255 mPa·s
5105 kPa	242.924 kg/m3 and 242.96 kg/m3	0.02579 mPa·s
5105.1 kPa	243 kg/m3	0.02579 mPa·s
5105.2 kPa	243.012 kg/m3	0.0258 mPa·s
5160.6 kPa	259.321 kg/m3	0.02781 mPa·s
5160.9 kPa	259.389 kg/m3	0.02781 mPa·s
5161 kPa	259.401 kg/m3 and 259.396 kg/m3	0.02781 mPa·s and 0.0278 mPa·s
5187.1 kPa	264.206 kg/m3	0.02852 mPa·s
5187.4 kPa	264.252 kg/m3	0.02852 mPa·s
5187.6 kPa	264.291 kg/m3	0.02852 mPa·s
5348.1 kPa	282.102 kg/m3	–
